From patent US20090215774A1, “USES OF INDANE COMPOUNDS” (H. LUNDBECK A/S, priority 2008, published 2009)
Where two headings read alike, the source gives them in different places.

How the values were obtained:
DAT Dopamine Transporter = target: T1, DAT Dopamine Transporter (Rattus norvegicus, UniProt P23977); assay: Measurements of [3H]dopamine uptake into rat cortical synaptosomes; format: biochemical
T1 construct: male wistar rats (125-250 g) are sacrificed by decapitation and striatum quickly dissected out; from tissue; host or cells: rat striatum, P2 fraction
T1 sequence (P23977 whole entry): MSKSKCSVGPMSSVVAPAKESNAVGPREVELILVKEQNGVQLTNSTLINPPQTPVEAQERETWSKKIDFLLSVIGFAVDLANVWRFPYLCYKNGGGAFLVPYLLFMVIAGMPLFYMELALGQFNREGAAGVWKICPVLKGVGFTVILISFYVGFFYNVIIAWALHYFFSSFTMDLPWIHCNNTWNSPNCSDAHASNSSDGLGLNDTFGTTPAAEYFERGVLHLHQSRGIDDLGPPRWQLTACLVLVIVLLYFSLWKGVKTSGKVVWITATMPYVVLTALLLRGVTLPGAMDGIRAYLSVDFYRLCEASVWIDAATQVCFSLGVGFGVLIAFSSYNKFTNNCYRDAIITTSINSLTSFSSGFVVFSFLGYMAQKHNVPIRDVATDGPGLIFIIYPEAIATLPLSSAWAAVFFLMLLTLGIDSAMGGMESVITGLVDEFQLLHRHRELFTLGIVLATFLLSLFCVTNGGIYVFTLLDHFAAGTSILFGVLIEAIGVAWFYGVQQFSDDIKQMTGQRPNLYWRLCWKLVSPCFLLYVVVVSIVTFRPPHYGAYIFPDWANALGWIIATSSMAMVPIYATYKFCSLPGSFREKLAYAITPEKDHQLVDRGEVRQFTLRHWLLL
Protocol: Measurements of [^3H]Dopamine Uptake Into Rat Cortical Synaptosomes
The tissue is gently homogenised (glass teflon homogeniser) and the P2 fraction is obtained by centrifugation (1000 g, 10 minutes and 40000 g, 20 minutes, 4° C.) and suspended in 560 volumes of a modified Krebs-Ringer-phosphate buffer, pH 7.4.
Tissue 0.25 mg/well (140 μl) (original tissue) is mixed with test suspension. […] Final volume is 0.2 mL. The incubation is terminated by filtering the samples under vacuum through Whatman GF/C filters with a wash of 1×0.2 ml buffer. The filters are dried and appropriate scintillation fluid (Optiphase Supermix) is added. After storage for 2 hours in the dark the content of radioactivity is determined by liquid scintillation counting. Uptake is obtained by subtracting the non-specific binding and passive transport measured in the presence of 100 μM of benztropin. For determination of the inhibition of uptake ten concentrations of drugs covering 6 decades are used.
^3H-DA=3,4-(ring-2,5,6-^3H)dopamine hydrochloride from New England Nuclear, specific activity 30-50 Ci/mmol.

[1] = target: NAT Noradrenergic Transporter (Rattus norvegicus, UniProt Q9WTR4); assay: Measurements of [3H]noradrenaline uptake into rat cortical synaptosomes; format: biochemical
NAT Noradrenergic Transporter, sequence (Q9WTR4 6-550 limits assumed): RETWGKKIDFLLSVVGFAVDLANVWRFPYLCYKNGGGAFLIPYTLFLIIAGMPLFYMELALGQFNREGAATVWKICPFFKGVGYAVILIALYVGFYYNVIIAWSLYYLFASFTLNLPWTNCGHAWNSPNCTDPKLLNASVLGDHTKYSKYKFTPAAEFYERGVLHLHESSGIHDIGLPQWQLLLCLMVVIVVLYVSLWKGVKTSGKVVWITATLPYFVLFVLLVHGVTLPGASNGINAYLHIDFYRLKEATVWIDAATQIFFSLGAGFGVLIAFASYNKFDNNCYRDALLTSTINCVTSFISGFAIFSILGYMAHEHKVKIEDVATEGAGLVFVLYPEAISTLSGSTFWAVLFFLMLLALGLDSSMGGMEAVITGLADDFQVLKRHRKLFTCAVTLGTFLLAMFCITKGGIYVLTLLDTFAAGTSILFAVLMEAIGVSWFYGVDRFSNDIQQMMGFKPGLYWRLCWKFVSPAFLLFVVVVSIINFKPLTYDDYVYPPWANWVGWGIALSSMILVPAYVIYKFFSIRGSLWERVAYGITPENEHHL
Protocol: Measurements of [^3H]Noradrenaline Uptake Into Rat Cortical Synaptosomes
The homogenate is centrifuged at 1000×g for 10 min at 4° C. The pellet is discarded and the supernatant is centrifuged at 40.000×g for 20 min. […] Pellet is suspended in 140 volumes of assaybuffer. Tissue is mixed with test compounds and after 10 min pre-incubation, 10 nM [^3H]-noradrenaline is added to a final volume of 0.2 ml and the mixture is incubated for 15 min at 37° C. After 15 min incubation, samples are filtered directly on Unifilter GF/C glass fiber filters (soaked for 30 min in 0.1% polyethylenimine) under vacuum and immediately washed with 1×0.2 mL assay buffer. Non-specific uptake is determined using talsupram (10 μM final concentration). Duloxetine is included as reference in all experiments as dose-response curve.

[2] = target: T2, 5-HTT Serotonin Transporter (Rattus norvegicus, UniProt P31652); assay: Measurements of [3H]-5-HT uptake into rat cortical synaptosomes; format: biochemical
T2 construct: Whole brains from male Wistar rats (125-225 g), excluding cerebellum, are homogenized; from tissue; host or cells: rat whole brain excluding cerebellum, synaptosomal (P2) pellet
T2 sequence (P31652 whole entry): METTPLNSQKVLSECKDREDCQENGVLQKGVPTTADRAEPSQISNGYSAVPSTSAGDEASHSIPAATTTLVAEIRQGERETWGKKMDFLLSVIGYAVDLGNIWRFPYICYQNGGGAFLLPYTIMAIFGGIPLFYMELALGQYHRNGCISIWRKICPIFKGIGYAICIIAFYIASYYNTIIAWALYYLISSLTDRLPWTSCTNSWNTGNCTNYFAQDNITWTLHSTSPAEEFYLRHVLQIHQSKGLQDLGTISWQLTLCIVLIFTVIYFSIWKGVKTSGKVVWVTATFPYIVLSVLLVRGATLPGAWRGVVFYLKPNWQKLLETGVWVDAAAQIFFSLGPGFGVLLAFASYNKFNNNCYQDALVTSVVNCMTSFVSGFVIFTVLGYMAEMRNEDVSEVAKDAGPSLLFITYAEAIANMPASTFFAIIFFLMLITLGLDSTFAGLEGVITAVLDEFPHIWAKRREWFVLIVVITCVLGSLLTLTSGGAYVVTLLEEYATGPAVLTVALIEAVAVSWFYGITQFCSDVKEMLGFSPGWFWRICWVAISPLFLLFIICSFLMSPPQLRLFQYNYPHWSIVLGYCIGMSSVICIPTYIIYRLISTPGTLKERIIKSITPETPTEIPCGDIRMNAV
Protocol: Measurements of [^3H]-5-HT Uptake Into Rat Cortical Synaptosomes
The homogenate is centrifuged at 1000×g for 10 rain at 4° C. The pellet is discarded and the supernatant is centrifuged at 40.000×g for 20 min. The final pellet is homogenized in assay buffer (0.5 mg original tissue/well). Test compounds (or buffer) and 10 nM [^3H]-5-HT are added to 96 well plates. […] The incubation is started by adding tissue to a final assay volume of 0.2 mL. After 15 min incubation with radioligand at 37° C., samples are filtered directly on Unifilter GF/C glass fiber filters (soaked for 30 min in 0.1% polyethylenimine) under vacuum and immediately washed with 1×0.2 ml assay buffer. Non-specific uptake is determined using citalopram (10 μM final concentration). Citalopram is included as reference in all experiments as dose-response curve.

[3] = 24 weeks' treatment, patients, cited from earlier work

Compound	IC50 (DAT Dopamine Transporter) [nM]	IC50 [1] [nM]	IC50 [2] [nM]	average weight loss ([3]; 0.25 mg) [%]	average weight loss ([3]; 0.5 mg) [%]	average weight loss ([3]; 1 mg) [%]
CN[C@@H]1C[C@@H](c2c[nH]c3ccccc23)c2ccccc21 [Formula IX]	0.1 to 200	0.1 to 200	0.1 to 200	–	–	–
CN[C@@H]1C[C@@H](c2c[nH]c3ccc(Cl)cc23)c2ccccc21 [Formula VIII]	0.1 to 200	0.1 to 200	0.1 to 200	–	–	–
CN[C@H]1C[C@@H](c2c[nH]c3c(F)cccc23)c2ccccc21 [Formula VII]	0.1 to 200	0.1 to 200	0.1 to 200	–	–	–
CN[C@@H]1C[C@H](c2c[nH]c3c(F)cccc23)c2ccccc21 [Formula VI]	0.1 to 200	0.1 to 200	0.1 to 200	–	–	–
CN[C@@H]1C[C@@H](c2c[nH]c3cc(OC)ccc23)c2ccccc21 [Formula X]	0.1 to 200	0.1 to 200	0.1 to 200	–	–	–
CCOC[C@@H]1[C@@H](c2ccc(Cl)c(Cl)c2)C[C@@H]2CC[C@H]1N2C [Tesofensine]	–	–	–	6.5	11.2	12.6
